The record followed here is publication PMC12136037, “Type II kinase inhibitors that target Parkinson’s disease–associated LRRK2” (Science Advances, 2025).

Holding throughout (assay): DSF 100 kinase selectivity screen;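 also: compound tested at 20 µM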
What all share (format): binding

Experiment [1] deals with T1, ~100 representative kinases (Homo sapiens, UniProt Q2M2I8).
T1 construct: Recombinant protein kinase domains with a concentration of 2 μM
The conditions noted are these: Protein AAK1; average of three replicates. In short, it runs like this:
(§1)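 Each kinase domain, at 2 μM, is mixed with 20 μM test compound and SYPRO Orange in Hepes (20 mM, pH 7.5) with 500 mM NaCl. Temperature is then raised at 3°C/min and fluorescence-monitored unfolding yields the melting temperature change, ΔTm in degrees Celsius.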

Experiment [2] concerns the target T2, ~100 representative kinases (Homo sapiens, UniProt P00519).
T2 construct: Recombinant protein kinase domains with a concentration of 2 μM
Conditions: Protein ABL1; average of three replicates. In short, it runs like this: as §1

Experiment [3] concerns the target T3, ~100 representative kinases (Homo sapiens, UniProt P34947).
T3 construct: Recombinant protein kinase domains with a concentration of 2 μM
Conditions: protein GPRK5; average of three replicates. In short, it runs like this:
as §1

Experiment [4] concerns the target T4, ~100 representative kinases (Homo sapiens, UniProt Q86V86).
T4 construct: Recombinant protein kinase domains with a concentration of 2 μM
The conditions noted are these: protein PIM3; average of three replicates. The gist of the method: as §1

Experiment [5] has as its target T5, ~100 representative kinases (Homo sapiens, UniProt Q13153).
T5 construct: Recombinant protein kinase domains with a concentration of 2 μM
Conditions: protein PAK1; average of three replicates. In short, it runs like this: as §1

The target of experiment [6] is T6, ~100 representative kinases (Homo sapiens, UniProt O14976).
T6 construct: Recombinant protein kinase domains with a concentration of 2 μM
T6 sequence (O14976 1-1311): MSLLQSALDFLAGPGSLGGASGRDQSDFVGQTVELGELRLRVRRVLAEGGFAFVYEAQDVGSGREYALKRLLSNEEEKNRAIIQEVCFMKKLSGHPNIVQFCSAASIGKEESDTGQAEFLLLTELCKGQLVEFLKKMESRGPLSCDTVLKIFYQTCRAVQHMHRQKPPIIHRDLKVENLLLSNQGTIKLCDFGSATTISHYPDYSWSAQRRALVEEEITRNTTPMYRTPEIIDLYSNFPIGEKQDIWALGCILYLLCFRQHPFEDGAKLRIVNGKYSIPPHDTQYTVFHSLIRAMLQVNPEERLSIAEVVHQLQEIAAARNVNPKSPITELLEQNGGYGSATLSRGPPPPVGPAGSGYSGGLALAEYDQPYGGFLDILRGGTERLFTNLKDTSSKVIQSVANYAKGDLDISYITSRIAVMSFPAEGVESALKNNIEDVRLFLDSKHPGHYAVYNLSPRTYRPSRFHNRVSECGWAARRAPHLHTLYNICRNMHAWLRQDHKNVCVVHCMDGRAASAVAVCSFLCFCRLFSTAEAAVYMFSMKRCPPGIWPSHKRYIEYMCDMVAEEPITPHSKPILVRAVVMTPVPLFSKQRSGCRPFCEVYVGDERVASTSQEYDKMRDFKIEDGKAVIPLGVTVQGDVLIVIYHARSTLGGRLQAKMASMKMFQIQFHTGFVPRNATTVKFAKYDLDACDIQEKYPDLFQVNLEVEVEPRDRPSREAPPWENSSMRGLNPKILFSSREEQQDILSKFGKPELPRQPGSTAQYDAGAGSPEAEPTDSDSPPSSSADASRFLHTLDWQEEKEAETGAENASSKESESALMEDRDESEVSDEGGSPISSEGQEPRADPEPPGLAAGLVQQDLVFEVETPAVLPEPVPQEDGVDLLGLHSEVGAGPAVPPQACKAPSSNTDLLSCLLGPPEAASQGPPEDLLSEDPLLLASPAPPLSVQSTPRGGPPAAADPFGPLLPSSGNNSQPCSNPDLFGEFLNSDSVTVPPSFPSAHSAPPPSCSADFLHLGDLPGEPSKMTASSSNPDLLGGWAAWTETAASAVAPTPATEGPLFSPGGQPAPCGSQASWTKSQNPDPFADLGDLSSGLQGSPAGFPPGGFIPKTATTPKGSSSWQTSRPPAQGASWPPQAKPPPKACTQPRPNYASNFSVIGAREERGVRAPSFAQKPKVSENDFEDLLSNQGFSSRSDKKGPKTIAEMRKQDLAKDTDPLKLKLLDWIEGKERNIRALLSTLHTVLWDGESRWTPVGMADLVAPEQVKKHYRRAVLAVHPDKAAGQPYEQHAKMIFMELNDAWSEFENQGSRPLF
The conditions noted are these: protein GAK; average of three replicates. The gist of the method: as §1

Experiment [7] has as its target T7, ~100 representative kinases (Homo sapiens, UniProt P53779).
T7 construct: Recombinant protein kinase domains with a concentration of 2 μM
The conditions noted are these: protein MAPK10; average of three replicates. The gist of the method: as §1

The target of experiment [8] is T8, ~100 representative kinases (Homo sapiens, UniProt O94804).
T8 construct: Recombinant protein kinase domains with a concentration of 2 μM
Conditions: Protein STK10; DSF; average of three replicates. In short, it runs like this: as §1

Experiment [9] concerns the target T9, ~100 representative kinases (Homo sapiens, UniProt O43293).
T9 construct: Recombinant protein kinase domains with a concentration of 2 μM
Conditions: Protein DAPK3; average of three replicates. In short, it runs like this:
as §1

The target in experiment [10] is T10, ~100 representative kinases (Homo sapiens, UniProt Q14680).
T10 construct: Recombinant protein kinase domains with a concentration of 2 μM
The conditions noted are these: protein MELK; average of three replicates. In short, it runs like this: as §1

The target in experiment [11] is T11, ~100 representative kinases (Homo sapiens, UniProt Q09013).
T11 construct: Recombinant protein kinase domains with a concentration of 2 μM
T11 sequence (Q09013 1-629): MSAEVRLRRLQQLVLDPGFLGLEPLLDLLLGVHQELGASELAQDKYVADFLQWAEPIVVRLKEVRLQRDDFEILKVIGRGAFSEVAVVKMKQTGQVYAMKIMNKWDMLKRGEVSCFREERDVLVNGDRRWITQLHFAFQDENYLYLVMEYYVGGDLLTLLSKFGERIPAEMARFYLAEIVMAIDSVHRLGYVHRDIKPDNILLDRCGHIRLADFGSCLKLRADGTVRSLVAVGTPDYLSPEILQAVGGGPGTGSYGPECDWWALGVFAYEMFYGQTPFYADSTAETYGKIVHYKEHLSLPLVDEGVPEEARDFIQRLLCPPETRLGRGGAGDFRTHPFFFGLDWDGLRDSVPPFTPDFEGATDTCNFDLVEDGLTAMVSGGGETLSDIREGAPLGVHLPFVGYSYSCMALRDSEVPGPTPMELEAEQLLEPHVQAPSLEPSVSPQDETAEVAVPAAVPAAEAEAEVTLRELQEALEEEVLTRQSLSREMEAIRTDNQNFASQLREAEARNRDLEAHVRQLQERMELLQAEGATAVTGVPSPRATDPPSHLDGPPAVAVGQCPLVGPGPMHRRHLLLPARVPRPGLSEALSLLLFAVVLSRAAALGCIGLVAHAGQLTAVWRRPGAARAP
Conditions: Protein DMPK1; average of three replicates. In short, it runs like this:
as §1

Experiment [12] deals with T12, ~100 representative kinases (Homo sapiens, UniProt P21802).
T12 construct: Recombinant protein kinase domains with a concentration of 2 μM
Conditions: protein FGFR2; average of three replicates. In short, it runs like this:
as §1

T5 sequence (Q13153 whole entry, the tested form may be a part): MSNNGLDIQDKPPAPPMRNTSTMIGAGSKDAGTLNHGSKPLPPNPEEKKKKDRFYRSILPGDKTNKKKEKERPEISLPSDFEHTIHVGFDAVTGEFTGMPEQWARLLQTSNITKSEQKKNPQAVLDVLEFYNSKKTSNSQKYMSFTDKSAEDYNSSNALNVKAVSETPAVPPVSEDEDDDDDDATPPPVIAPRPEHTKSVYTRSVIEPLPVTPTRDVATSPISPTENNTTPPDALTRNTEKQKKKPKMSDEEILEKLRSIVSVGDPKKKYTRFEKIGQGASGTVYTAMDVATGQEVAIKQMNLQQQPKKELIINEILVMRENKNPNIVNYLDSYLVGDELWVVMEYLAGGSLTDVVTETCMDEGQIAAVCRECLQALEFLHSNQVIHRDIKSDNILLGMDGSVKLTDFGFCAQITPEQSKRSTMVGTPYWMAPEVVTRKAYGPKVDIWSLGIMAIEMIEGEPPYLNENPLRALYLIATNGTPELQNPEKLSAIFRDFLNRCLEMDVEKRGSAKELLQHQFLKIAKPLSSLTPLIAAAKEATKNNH
T3 sequence (P34947 whole entry, the tested form may be a part): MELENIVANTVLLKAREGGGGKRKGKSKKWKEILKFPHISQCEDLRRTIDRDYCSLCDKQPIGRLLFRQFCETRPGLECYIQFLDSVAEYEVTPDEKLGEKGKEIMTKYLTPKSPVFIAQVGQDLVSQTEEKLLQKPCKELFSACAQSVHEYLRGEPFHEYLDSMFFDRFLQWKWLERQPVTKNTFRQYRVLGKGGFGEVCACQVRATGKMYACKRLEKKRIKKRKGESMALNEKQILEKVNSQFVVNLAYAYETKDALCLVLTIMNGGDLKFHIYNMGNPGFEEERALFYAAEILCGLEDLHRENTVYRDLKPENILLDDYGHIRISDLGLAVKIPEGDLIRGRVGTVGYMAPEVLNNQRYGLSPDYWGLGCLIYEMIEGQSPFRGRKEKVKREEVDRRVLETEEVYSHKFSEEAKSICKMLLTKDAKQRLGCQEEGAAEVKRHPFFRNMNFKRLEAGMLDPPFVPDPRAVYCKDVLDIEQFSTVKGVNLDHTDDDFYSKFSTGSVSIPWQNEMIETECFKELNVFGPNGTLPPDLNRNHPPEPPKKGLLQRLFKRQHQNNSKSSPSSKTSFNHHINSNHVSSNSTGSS
T1 sequence (Q2M2I8 whole entry, the tested form may be a part): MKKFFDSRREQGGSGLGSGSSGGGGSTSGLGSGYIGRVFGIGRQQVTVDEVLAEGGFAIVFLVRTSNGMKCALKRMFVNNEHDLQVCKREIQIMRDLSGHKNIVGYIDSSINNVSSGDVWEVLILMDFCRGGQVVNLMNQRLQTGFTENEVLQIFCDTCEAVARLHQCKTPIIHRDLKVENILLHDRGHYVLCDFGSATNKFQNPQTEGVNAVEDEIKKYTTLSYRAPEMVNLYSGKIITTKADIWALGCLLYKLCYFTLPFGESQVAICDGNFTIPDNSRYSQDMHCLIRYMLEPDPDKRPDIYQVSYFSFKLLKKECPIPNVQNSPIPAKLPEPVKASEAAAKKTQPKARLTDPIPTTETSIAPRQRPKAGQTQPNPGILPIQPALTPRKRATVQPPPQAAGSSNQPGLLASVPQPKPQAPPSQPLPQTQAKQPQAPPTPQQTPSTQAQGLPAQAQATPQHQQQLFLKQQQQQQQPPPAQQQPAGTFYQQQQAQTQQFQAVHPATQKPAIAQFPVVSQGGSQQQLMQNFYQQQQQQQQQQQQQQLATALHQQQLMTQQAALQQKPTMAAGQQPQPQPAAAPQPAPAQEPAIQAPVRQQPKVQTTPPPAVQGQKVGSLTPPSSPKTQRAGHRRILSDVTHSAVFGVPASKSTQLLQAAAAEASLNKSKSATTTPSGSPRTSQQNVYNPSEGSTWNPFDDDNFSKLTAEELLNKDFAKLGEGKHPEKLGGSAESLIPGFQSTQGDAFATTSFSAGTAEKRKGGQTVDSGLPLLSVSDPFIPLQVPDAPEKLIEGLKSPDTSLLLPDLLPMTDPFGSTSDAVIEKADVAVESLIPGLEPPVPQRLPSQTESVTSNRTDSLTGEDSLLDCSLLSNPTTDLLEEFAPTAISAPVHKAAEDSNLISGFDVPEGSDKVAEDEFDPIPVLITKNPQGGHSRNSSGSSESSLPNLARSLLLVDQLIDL
T7 sequence (P53779 whole entry, the tested form may be a part): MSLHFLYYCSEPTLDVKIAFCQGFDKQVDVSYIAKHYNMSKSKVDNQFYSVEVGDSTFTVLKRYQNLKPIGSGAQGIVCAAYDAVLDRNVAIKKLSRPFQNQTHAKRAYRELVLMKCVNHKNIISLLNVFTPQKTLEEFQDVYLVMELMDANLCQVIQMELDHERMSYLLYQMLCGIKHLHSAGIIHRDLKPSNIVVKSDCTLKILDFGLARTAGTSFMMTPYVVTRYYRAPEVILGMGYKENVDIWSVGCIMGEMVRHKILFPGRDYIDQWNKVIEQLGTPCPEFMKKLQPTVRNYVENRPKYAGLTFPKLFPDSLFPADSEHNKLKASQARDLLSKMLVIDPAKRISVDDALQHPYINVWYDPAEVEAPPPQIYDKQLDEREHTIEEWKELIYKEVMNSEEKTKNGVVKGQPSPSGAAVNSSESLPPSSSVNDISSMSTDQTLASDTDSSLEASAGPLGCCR
T2 sequence (P00519 whole entry, the tested form may be a part): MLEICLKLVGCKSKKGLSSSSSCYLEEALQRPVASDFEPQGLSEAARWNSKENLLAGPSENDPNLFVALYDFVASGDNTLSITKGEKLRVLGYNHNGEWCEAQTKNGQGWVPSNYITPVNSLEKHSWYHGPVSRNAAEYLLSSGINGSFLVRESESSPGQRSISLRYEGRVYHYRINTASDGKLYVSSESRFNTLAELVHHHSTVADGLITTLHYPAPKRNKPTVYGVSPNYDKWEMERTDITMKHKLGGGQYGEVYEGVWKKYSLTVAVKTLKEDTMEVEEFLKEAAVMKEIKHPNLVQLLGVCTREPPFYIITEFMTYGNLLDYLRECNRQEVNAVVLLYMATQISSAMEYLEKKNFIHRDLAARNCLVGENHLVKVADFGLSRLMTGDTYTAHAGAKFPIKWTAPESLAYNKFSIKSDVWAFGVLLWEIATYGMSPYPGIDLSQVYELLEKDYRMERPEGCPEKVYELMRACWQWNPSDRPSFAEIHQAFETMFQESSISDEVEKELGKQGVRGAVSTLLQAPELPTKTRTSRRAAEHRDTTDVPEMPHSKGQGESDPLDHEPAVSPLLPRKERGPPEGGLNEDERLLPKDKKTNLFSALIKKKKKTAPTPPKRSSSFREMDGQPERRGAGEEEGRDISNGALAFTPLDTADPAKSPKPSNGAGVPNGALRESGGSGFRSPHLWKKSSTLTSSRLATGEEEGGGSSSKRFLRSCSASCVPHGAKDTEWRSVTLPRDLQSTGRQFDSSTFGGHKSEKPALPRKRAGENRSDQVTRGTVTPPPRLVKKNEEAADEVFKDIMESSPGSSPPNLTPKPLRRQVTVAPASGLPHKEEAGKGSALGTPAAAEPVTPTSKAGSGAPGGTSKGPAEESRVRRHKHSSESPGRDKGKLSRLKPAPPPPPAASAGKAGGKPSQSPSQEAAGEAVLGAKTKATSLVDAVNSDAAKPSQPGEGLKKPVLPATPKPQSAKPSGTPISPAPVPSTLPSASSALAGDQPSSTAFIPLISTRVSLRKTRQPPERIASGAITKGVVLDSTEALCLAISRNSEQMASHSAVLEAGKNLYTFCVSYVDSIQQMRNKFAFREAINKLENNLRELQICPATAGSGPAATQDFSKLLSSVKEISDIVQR
T9 sequence (O43293 whole entry, the tested form may be a part): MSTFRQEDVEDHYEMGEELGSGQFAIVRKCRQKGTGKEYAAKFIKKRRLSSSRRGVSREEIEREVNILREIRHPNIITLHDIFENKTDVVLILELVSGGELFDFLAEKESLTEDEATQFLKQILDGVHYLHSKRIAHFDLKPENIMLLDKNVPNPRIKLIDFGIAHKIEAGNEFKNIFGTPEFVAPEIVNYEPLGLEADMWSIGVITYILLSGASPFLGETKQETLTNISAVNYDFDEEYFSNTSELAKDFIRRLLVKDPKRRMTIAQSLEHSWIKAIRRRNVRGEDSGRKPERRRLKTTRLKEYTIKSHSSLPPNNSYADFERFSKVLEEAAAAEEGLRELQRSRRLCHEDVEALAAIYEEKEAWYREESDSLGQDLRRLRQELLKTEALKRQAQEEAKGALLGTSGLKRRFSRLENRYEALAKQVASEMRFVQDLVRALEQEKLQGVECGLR

`Cc1cc(F)ccc1NC(=O)C1(C(=O)Nc2cccc(-c3c[nH]c4ncnc(N5CCOCC5)c34)c2)CC1` [Compound 24]: the dTm in experiment [1] is recorded as 3.04 K; in experiment [2], 1.15 K; in [3], 0.16 K; in experiment [4], 0.00331 K; in experiment [5] it was 2.36 K; in experiment [6], 0.84 K. For the same compound, the dTm is reported as -0.11 K in [7]; 8.23 K in experiment [8]; 2.09 K in [9]; 12.59 K in experiment [10]; -1.04 K in [11]; 2.08 K in experiment [12].

`O=C(Nc1cc(F)cc(Br)c1)C1(C(=O)Nc2cccc(-c3c[nH]c4ncnc(N5CCOCC5)c34)c2)CC1` [Compound 27]: the dTm in experiment [1] is reported as -2.65 K; in [2] it was 1.02 K; in [3] it was 0.40 K; in experiment [4], -0.05 K; in [5], 3.33 K; in [6], -0.90 K. The dTm in experiment [7] is 5.93 K; in experiment [8] it was 10.11 K; in experiment [9] it was 4.42 K; in experiment [10], 12.52 K; in experiment [11], -0.12 K; in experiment [12], 2.02 K.

For `O=C(Nc1ccc(Cl)cc1)C1(C(=O)Nc2cccc(-c3c[nH]c4ncnc(N5CCOCC5)c34)c2)CC1` [Compound 13], the dTm is 3.55 K in experiment [1]; 2.64 K in experiment [2]; 1.38 K in [3]; 1.90 K in [4]; 3.82 K in experiment [5]; 1.60 K in experiment [6]. Moreover, the dTm is given as 3.61 K in experiment [7]; 14.64 K in [8]; 8.55 K in [9]; 15.01 K in experiment [10]; -0.32 K in experiment [11]; 3.14 K in [12].

For the compound `COc1cc(S(C)(=O)=O)ccc1Nc1nc(N(C)C)c2c(Cl)c[nH]c2n1` [Compound 37], the dTm in experiment [1] is 0.85 K; in experiment [2] it was 0.38 K; in [3], 1.16 K; in experiment [4] it was 0.48 K; in experiment [5] it was -0.88 K; in [6], 3.76 K. The dTm in experiment [7] is 2.71 K; in experiment [8], -1.61 K; in experiment [9], 3.62 K; in experiment [10], 0.45 K; in [11], 0.0114 K; in [12] it was -0.14 K.

On to `O=C(Nc1cccc(-c2c[nH]c3ncnc(N4CCOCC4)c23)c1)C1(C(=O)Nc2ccc(F)c(F)c2)CC1` [Compound 17], for which the dTm in experiment [1] was 3.45 K; in experiment [2], 1.22 K; in experiment [3] it was 0.75 K; in experiment [4], 1.09 K; in [5], 3.52 K; in [6], 1.14 K. Besides, the dTm in experiment [7] is 1.84 K; in experiment [8], 13.86 K; in experiment [9], 8.69 K; in experiment [10], 14.46 K; in experiment [11] it was -0.94 K; in experiment [12] it was 2.62 K.

Turning to `O=C(Nc1cccc(-c2c[nH]c3ncnc(N4CCOCC4)c23)c1)C1(C(=O)Nc2cc(Br)c(F)cc2F)CC1` [Compound 25], the dTm in [1] was -2.54 K; in experiment [2], 1.76 K; in experiment [3], 0.32 K; in experiment [4] it was -0.17 K; in experiment [5], 0.67 K; in experiment [6] it was 0.71 K. The dTm is on record as 3.64 K in [7]; 11.10 K in experiment [8]; 3.02 K in experiment [9]; 14.53 K in [10]; 0.24 K in experiment [11]; 3.32 K in [12].

For `CC(C)(C)c1cc(NC(=O)Nc2cccc(-c3c[nH]c4ncnc(N5CCOCC5)c34)c2)n(-c2ccc3ncccc3c2)n1` [Compound 28], the dTm in experiment [1] worked out at 6.38 K; in [2] it was 7.77 K; in [3], 0.98 K; in experiment [4] it was 4.96 K; in [5] it was 5.08 K; in experiment [6], 7.34 K. Also, the dTm in experiment [7] is on record as 4.27 K; in experiment [8], 20.14 K; in experiment [9] it was 14.79 K; in [10], 2.71 K; in experiment [11], -2.53 K; in experiment [12] it was 10.62 K.

As for `COc1cc(C(=O)N2CCOCC2)c(F)cc1Nc1nc(N(C)C)c2c(Cl)c[nH]c2n1` [Compound 36], the dTm in experiment [1] was 2.52 K; in experiment [2], 1.16 K; in experiment [3], 0.46 K; in [4], -0.33 K; in [5] it was -1.33 K; in experiment [6], 6.68 K. Also, the dTm is on record as 5.50 K in [7]; -1.96 K in [8]; 6.29 K in experiment [9]; 1.11 K in experiment [10]; 0.30 K in experiment [11]; -0.36 K in experiment [12].

For the compound `COc1cc2c(Oc3ccc(NC(=O)C4(C(=O)Nc5ccc(F)cc5)CC4)cc3F)ccnc2cc1OCCCN1CCOCC1` [Foretinib, reference compound], the dTm is 0.82 K in experiment [1]; 13.44 K in experiment [2]; 0.60 K in [3]; -0.88 K in experiment [4]; 1.69 K in [5]; 2.91 K in experiment [6]. The dTm is listed as 1.66 K in experiment [7]; 16.81 K in experiment [8]; 5.00 K in experiment [9]; 7.59 K in experiment [10]; -0.67 K in experiment [11]; 7.20 K in experiment [12].
